Assay results: PubChem BioAssay (NCI)
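Step 1: Grow cells in 96-well plates. Step 2: Expose to compound for 48 hours at 5 concentrations. Step 3: Interpolate endpoints linearly; if unreached, use highest concentration. TGI denotes the concentration required for complete inhibition of growth.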

Columns and labels:
Assay in all cases: NCI anticancer screen, dose series, 48 h
HS 578T breast = test system: HS 578T breast
OVCAR-4 ovarian = test system: OVCAR-4 ovarian
EKVX NSCLC = test system: EKVX NSCLC
UACC-257 melanoma = test system: UACC-257 melanoma
786-0 renal = test system: 786-0 renal
SF-295 CNS = test system: SF-295 CNS
ACHN renal = test system: ACHN renal
PC-3 prostate = test system: PC-3 prostate
MALME-3M melanoma = test system: MALME-3M melanoma
HCT-15 colon = test system: HCT-15 colon
SR leukemia = test system: SR leukemia
MOLT-4 leukemia = test system: MOLT-4 leukemia
HCT-116 colon = test system: HCT-116 colon
SF-539 CNS = test system: SF-539 CNS
MDA-MB-231 breast = test system: MDA-MB-231 breast
SF-268 CNS = test system: SF-268 CNS
SNB-75 CNS = test system: SNB-75 CNS
SK-MEL-5 melanoma = test system: SK-MEL-5 melanoma
SK-OV-3 ovarian = test system: SK-OV-3 ovarian
SNB-19 CNS = test system: SNB-19 CNS
MDA-N = test system: MDA-N
HOP-62 NSCLC = test system: HOP-62 NSCLC
NCI-H23 lung = test system: NCI-H23 lung
A549 NSCLC = test system: A549 NSCLC
HCC-2998 colon = test system: HCC-2998 colon
SW-620 colon = test system: SW-620 colon
TK-10 renal = test system: TK-10 renal
CAKI-1 renal = test system: CAKI-1 renal
CCRF-CEM leukemia = test system: CCRF-CEM leukemia
OVCAR-5 ovarian = test system: OVCAR-5 ovarian
OVCAR-3 ovarian = test system: OVCAR-3 ovarian
NCI-H460 lung = test system: NCI-H460 lung
A498 renal = test system: A498 renal
MDA-MB-435 = test system: MDA-MB-435
SK-MEL-2 melanoma = test system: SK-MEL-2 melanoma
DU-145 prostate = test system: DU-145 prostate
SK-MEL-28 melanoma = test system: SK-MEL-28 melanoma
RPMI-8226 leukemia = test system: RPMI-8226 leukemia
BT-549 breast = test system: BT-549 breast
T-47D breast = test system: T-47D breast
M14 melanoma = test system: M14 melanoma
NCI-H226 lung = test system: NCI-H226 lung
OVCAR-8 ovarian = test system: OVCAR-8 ovarian
HT29 colon = test system: HT29 colon
LOX IMVI melanoma = test system: LOX IMVI melanoma
SN12C renal = test system: SN12C renal
KM12 colon = test system: KM12 colon
HL-60(TB) leukemia = test system: HL-60(TB) leukemia
COLO 205 colon = test system: COLO 205 colon
UACC-62 melanoma = test system: UACC-62 melanoma
MCF7 breast = test system: MCF7 breast
NCI-H522 lung = test system: NCI-H522 lung
U251 CNS = test system: U251 CNS
K-562 leukemia = test system: K-562 leukemia
UO-31 renal = test system: UO-31 renal
RXF 393 renal = test system: RXF 393 renal
IGROV1 ovarian = test system: IGROV1 ovarian
HOP-92 NSCLC = test system: HOP-92 NSCLC

Which results are given for `Cc1cccc(NC(=O)/C=C/c2ccccc2)c1C`?
TGI (HS 578T breast): > 100 µM; TGI (OVCAR-4 ovarian): > 100 µM; TGI (EKVX NSCLC): > 100 µM; TGI (UACC-257 melanoma): > 100 µM; TGI (786-0 renal): > 100 µM; TGI (SF-295 CNS): > 100 µM; TGI (ACHN renal): > 100 µM; TGI (PC-3 prostate): > 100 µM; TGI (MALME-3M melanoma): > 100 µM; TGI (HCT-15 colon): > 100 µM; TGI (SR leukemia): > 100 µM; TGI (MOLT-4 leukemia): > 100 µM; TGI (HCT-116 colon): > 100 µM; TGI (SF-539 CNS): > 100 µM; TGI (MDA-MB-231 breast): > 100 µM; TGI (SF-268 CNS): > 100 µM; TGI (SNB-75 CNS): > 100 µM; TGI (SK-MEL-5 melanoma): > 100 µM; TGI (SK-OV-3 ovarian): > 100 µM; TGI (SNB-19 CNS): > 100 µM; TGI (MDA-N): > 100 µM; TGI (HOP-62 NSCLC): > 100 µM; TGI (NCI-H23 lung): > 100 µM; TGI (A549 NSCLC): > 100 µM; TGI (HCC-2998 colon): > 100 µM; TGI (SW-620 colon): > 100 µM; TGI (TK-10 renal): > 100 µM; TGI (CAKI-1 renal): > 100 µM; TGI (CCRF-CEM leukemia): > 100 µM; TGI (OVCAR-5 ovarian): > 100 µM; TGI (OVCAR-3 ovarian): > 100 µM; TGI (NCI-H460 lung): > 100 µM; TGI (A498 renal): > 100 µM; TGI (MDA-MB-435): > 100 µM; TGI (SK-MEL-2 melanoma): > 100 µM; TGI (DU-145 prostate): > 100 µM; TGI (SK-MEL-28 melanoma): > 100 µM; TGI (RPMI-8226 leukemia): > 100 µM; TGI (BT-549 breast): > 100 µM; TGI (T-47D breast): > 100 µM; TGI (M14 melanoma): > 100 µM; TGI (NCI-H226 lung): > 100 µM; TGI (OVCAR-8 ovarian): > 100 µM; TGI (HT29 colon): > 100 µM; TGI (LOX IMVI melanoma): > 100 µM; TGI (SN12C renal): > 100 µM; TGI (KM12 colon): > 100 µM; TGI (HL-60(TB) leukemia): > 100 µM; TGI (COLO 205 colon): > 100 µM; TGI (UACC-62 melanoma): > 100 µM; TGI (MCF7 breast): > 100 µM; TGI (NCI-H522 lung): > 100 µM; TGI (U251 CNS): > 100 µM; TGI (K-562 leukemia): > 100 µM

How did the TGI (HS 578T breast) turn out when `O=C1C=CC(=O)c2c(O)c(NCCCN3CCOCC3)c(Cl)c(O)c21` was run?
Its TGI is 3.14 µM.

What about the TGI (UACC-257 melanoma) of the same compound?
Its TGI is 4.94 µM.

And the TGI (786-0 renal)?
The TGI was 5.23 µM.

What about the TGI (SF-295 CNS) of the same compound?
The TGI was 5.49 µM.

What about the TGI (ACHN renal) of the same compound?
The TGI was > 10 µM.

What about the TGI (PC-3 prostate) of the same compound?
Its TGI is 9.91 µM.

What about the TGI (MALME-3M melanoma) of the same compound?
Its TGI is 3.56 µM.

And the TGI (UO-31 renal)?
The TGI was 3.64 µM.

And the TGI (HCT-15 colon)?
Its TGI is 3.12 µM.

And the TGI (SR leukemia)?
Its TGI is 4.64 µM.

And the TGI (HCT-116 colon)?
The TGI was 2.93 µM.

And the TGI (SF-539 CNS)?
Its TGI is 3.21 µM.

What about the TGI (MDA-MB-231 breast) of the same compound?
Its TGI is 7.96 µM.

What about the TGI (SF-268 CNS) of the same compound?
Its TGI is 7.07 µM.

What about the TGI (SNB-75 CNS) of the same compound?
Its TGI is 4.15 µM.

What about the TGI (SK-MEL-5 melanoma) of the same compound?
Its TGI is 2.4 µM.

And the TGI (SK-OV-3 ovarian)?
Its TGI is > 10 µM.

What about the TGI (SNB-19 CNS) of the same compound?
Its TGI is 3.25 µM.

And the TGI (MDA-N)?
Its TGI is 3.09 µM.

And the TGI (HOP-62 NSCLC)?
The TGI was 3.86 µM.

What about the TGI (NCI-H23 lung) of the same compound?
The TGI was 3.43 µM.

And the TGI (A549 NSCLC)?
Its TGI is > 10 µM.

And the TGI (HCC-2998 colon)?
Its TGI is 3.71 µM.

What about the TGI (SW-620 colon) of the same compound?
The TGI was 4.22 µM.

What about the TGI (TK-10 renal) of the same compound?
Its TGI is > 10 µM.

What about the TGI (OVCAR-5 ovarian) of the same compound?
The TGI was 3.1 µM.

What about the TGI (OVCAR-3 ovarian) of the same compound?
Its TGI is 2.99 µM.

What about the TGI (NCI-H460 lung) of the same compound?
Its TGI is > 10 µM.

And the TGI (A498 renal)?
Its TGI is > 10 µM.

And the TGI (MDA-MB-435)?
Its TGI is 3.62 µM.

And the TGI (SK-MEL-2 melanoma)?
The TGI was 0.526 µM.

What about the TGI (DU-145 prostate) of the same compound?
Its TGI is 2.95 µM.

And the TGI (SK-MEL-28 melanoma)?
The TGI was 3.17 µM.

What about the TGI (RPMI-8226 leukemia) of the same compound?
The TGI was 1.54 µM.

And the TGI (BT-549 breast)?
Its TGI is 3.28 µM.

And the TGI (T-47D breast)?
Its TGI is > 10 µM.

And the TGI (M14 melanoma)?
Its TGI is 4.18 µM.

What about the TGI (NCI-H226 lung) of the same compound?
Its TGI is > 10 µM.

What about the TGI (OVCAR-8 ovarian) of the same compound?
The TGI was > 10 µM.

And the TGI (HT29 colon)?
The TGI was 7.34 µM.

And the TGI (LOX IMVI melanoma)?
Its TGI is 4.26 µM.

What about the TGI (RXF 393 renal) of the same compound?
The TGI was 3.13 µM.

And the TGI (SN12C renal)?
The TGI was 3.68 µM.

What about the TGI (KM12 colon) of the same compound?
Its TGI is 3.8 µM.

What about the TGI (IGROV1 ovarian) of the same compound?
The TGI was 3.58 µM.

What about the TGI (UACC-62 melanoma) of the same compound?
Its TGI is 4.81 µM.

What about the TGI (MCF7 breast) of the same compound?
Its TGI is 3.31 µM.

What about the TGI (U251 CNS) of the same compound?
The TGI was 5.55 µM.

What about the TGI (K-562 leukemia) of the same compound?
The TGI was 8.68 µM.

What does the source list for `C=CCCC1CCCNC1=S` (stereo not drawn)?
TGI (HS 578T breast): > 100 µM; TGI (OVCAR-4 ovarian): > 100 µM; TGI (EKVX NSCLC): > 100 µM; TGI (UACC-257 melanoma): > 100 µM; TGI (786-0 renal): > 100 µM; TGI (SF-295 CNS): > 100 µM; TGI (ACHN renal): > 100 µM; TGI (PC-3 prostate): > 100 µM; TGI (UO-31 renal): > 100 µM; TGI (HCT-15 colon): > 100 µM; TGI (HCT-116 colon): > 100 µM; TGI (SF-539 CNS): > 100 µM; TGI (MDA-MB-231 breast): > 100 µM; TGI (SF-268 CNS): > 100 µM; TGI (SNB-75 CNS): > 100 µM; TGI (SK-MEL-5 melanoma): > 100 µM; TGI (SK-OV-3 ovarian): > 100 µM; TGI (SNB-19 CNS): > 100 µM; TGI (MDA-N): > 100 µM; TGI (HOP-62 NSCLC): > 100 µM; TGI (NCI-H23 lung): > 100 µM; TGI (A549 NSCLC): > 100 µM; TGI (HCC-2998 colon): > 100 µM; TGI (SW-620 colon): > 100 µM; TGI (TK-10 renal): > 100 µM; TGI (CAKI-1 renal): > 100 µM; TGI (OVCAR-5 ovarian): > 100 µM; TGI (NCI-H460 lung): > 100 µM; TGI (A498 renal): > 100 µM; TGI (MDA-MB-435): > 100 µM; TGI (SK-MEL-2 melanoma): > 100 µM; TGI (DU-145 prostate): > 100 µM; TGI (SK-MEL-28 melanoma): > 100 µM; TGI (RPMI-8226 leukemia): > 100 µM; TGI (BT-549 breast): > 100 µM; TGI (T-47D breast): > 100 µM; TGI (M14 melanoma): > 100 µM; TGI (NCI-H226 lung): > 100 µM; TGI (OVCAR-8 ovarian): > 100 µM; TGI (HT29 colon): > 100 µM; TGI (RXF 393 renal): > 100 µM; TGI (SN12C renal): > 100 µM; TGI (HOP-92 NSCLC): > 100 µM; TGI (IGROV1 ovarian): > 100 µM; TGI (COLO 205 colon): > 100 µM; TGI (UACC-62 melanoma): > 100 µM; TGI (MCF7 breast): > 100 µM; TGI (NCI-H522 lung): > 100 µM; TGI (U251 CNS): > 100 µM; TGI (K-562 leukemia): > 100 µM
